BindingDB's records for doi:10.1002/cbic.201402321 (The University of Texas At Austin, 2014)

Target: T1, Eukaryotic elongation factor 2 kinase (Homo sapiens, UniProt O00418)
T1 sequence (O00418 whole entry): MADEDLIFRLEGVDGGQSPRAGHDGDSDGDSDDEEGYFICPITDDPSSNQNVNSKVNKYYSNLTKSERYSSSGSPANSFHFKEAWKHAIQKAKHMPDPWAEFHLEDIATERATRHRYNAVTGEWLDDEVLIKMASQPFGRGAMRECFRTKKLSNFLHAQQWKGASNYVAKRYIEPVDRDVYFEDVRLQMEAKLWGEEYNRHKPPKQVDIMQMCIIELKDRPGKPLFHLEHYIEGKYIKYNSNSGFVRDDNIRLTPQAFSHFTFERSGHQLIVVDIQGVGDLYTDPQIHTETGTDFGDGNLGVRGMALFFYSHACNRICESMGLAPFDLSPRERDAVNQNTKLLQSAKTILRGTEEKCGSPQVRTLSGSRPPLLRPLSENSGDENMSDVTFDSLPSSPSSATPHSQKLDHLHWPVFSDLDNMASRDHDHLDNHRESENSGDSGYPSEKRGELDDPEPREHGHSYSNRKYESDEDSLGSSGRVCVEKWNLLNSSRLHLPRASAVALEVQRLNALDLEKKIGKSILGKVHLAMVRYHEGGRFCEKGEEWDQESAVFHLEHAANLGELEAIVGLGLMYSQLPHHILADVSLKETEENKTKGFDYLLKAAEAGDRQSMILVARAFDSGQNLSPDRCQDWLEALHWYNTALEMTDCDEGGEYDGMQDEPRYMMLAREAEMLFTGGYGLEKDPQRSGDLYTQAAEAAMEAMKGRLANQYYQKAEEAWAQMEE
Assay: Kinase assay
Protocol: WT eEF-2K (2 nM) was preincubated with various concentrations of inhibitors (0-1000 uM) in assay buffer containing CaCl2 (150 uM), calmodulin (1 uM), triton X-100 (0.01%), and peptide substrate (50 uM) for 60 min. The reactions were started by addition of [gamma-P32]-ATP (100 uM, specific activity = 1000 cpm/pmol).

SMILES | IC50 [µM]
N#CC1C(=O)NC(=O)C(C#N)C1c1ccc(Cl)c(Cl)c1 (stereo unspecified) [4-(3,4-dichlorophenyl)-2,6-dioxopiperidine-3,5-dicarbonitrile (2)] | 30
COc1cccc(C2C(C#N)C(=O)NC(=O)C2C#N)c1 (stereo unspecified) [4-(3-methoxyphenyl)-2,6-dioxo-3,5-piperidinedicarbonitrile (MDP)] | 25
N#CC1C(=O)NC(=O)C(C#N)C1c1c(Cl)cccc1Cl (stereo unspecified) [4‐(2,6‐dichlorophenyl)‐2,6‐dioxopiperidine‐3,5‐ dicarbonitrile (5)] | 57
Cc1ccccc1C1C(C#N)C(=O)NC(=O)C1C#N (stereo unspecified) [4‐(2‐methylphenyl)‐2,6‐dioxopiperidine‐3,5‐ dicarbonitrile (1)] | 33
N#CC1C(=O)NC(=O)C(C#N)C1c1cccc(O)c1 (stereo unspecified) [4‐(3‐hydroxyphenyl)‐2,6‐dioxopiperidine‐3,5‐ dicarbonitrile (4)] | 66
Cc1ccc(C2C(C#N)C(=O)NC(=O)C2C#N)cc1 (stereo unspecified) [4‐(4‐methylphenyl)‐2,6‐dioxopiperidine‐3,5‐ dicarbonitrile (3)] | 46
